Test results: PubChem BioAssay (NCI)
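Values below derive from 48-hour exposures of cells grown in 96-well plates, with endpoints linearly interpolated between the two concentrations bracketing the appropriate inhibition level. GI50 = concentration required for 50% inhibition of growth. Definition used: TGI = concentration required for complete inhibition of growth.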 *1 amine or outer side, *2 acyl side, *3 side chain or, on linkers, in order; H or OH if unused. Where a SMILES comes first, the peptide text is derived from it. Bridges are numbered along the chain shown (N, C = ends). [ ]: non-standard residue; d: D form. The star is where a group is joined. Phe(3,5-F2) = N[C@@H](Cc1cc(F)cc(F)c1)C(=O)O; Pro(4R-Me) = C[C@H]1CN[C@H](C(=O)O)C1; aThr = C[C@H](O)[C@H](N)C(=O)O; Pip = O=C(O)[C@@H]1CCCCN1; X10 = Fc1cc(C2CC2)ccc1N*; CO = O=C([*:1])[*:2]

What was measured:
Experiment in all cases: DTP human tumour cell line panel, 48 h
DU-145 prostate = test system: DU-145 prostate
EKVX NSCLC = test system: EKVX NSCLC
HS 578T breast = test system: HS 578T breast
HT29 colon = test system: HT29 colon
LOX IMVI melanoma = test system: LOX IMVI melanoma
M14 melanoma = test system: M14 melanoma
NCI-H226 lung = test system: NCI-H226 lung
OVCAR-3 ovarian = test system: OVCAR-3 ovarian
OVCAR-8 ovarian = test system: OVCAR-8 ovarian
SR leukemia = test system: SR leukemia

Row | SMILES | GI50 (DU-145 prostate) [µM] | TGI (DU-145 prostate) [µM] | GI50 (EKVX NSCLC) [nM] | TGI (EKVX NSCLC) [µM] | GI50 (HS 578T breast) [µM] | TGI (HS 578T breast) [µM] | GI50 (HT29 colon) [µM] | TGI (HT29 colon) [µM] | GI50 (LOX IMVI melanoma) [µM] | TGI (LOX IMVI melanoma) [µM] | GI50 (M14 melanoma) [µM] | TGI (M14 melanoma) [µM] | GI50 (NCI-H226 lung) [nM] | TGI (NCI-H226 lung) [µM] | GI50 (OVCAR-3 ovarian) [µM] | TGI (OVCAR-3 ovarian) [µM] | GI50 (OVCAR-8 ovarian) [µM] | TGI (OVCAR-8 ovarian) [µM] | GI50 (SR leukemia) [nM] | TGI (SR leukemia) [µM]
1 | OCCN(CCO)c1ncnc2c1ncn2Cc1ccc(CCl)cc1 | 4.42 | 16.1 | 16600 | 31.8 | 16 | 36.9 | 32.5 | > 100 | 16.4 | 30.9 | 13.8 | 28.4 | 23400 | 58 | 19.4 | 34.9 | 15.4 | 31.7 | 6940 | > 100
2 | CC(=O)OC1OC([C@@H]2c3cccc(O)c3C(=O)c3c(O)cc(C)cc32)C(O)C(O)C1O (stereo partly drawn) | 0.137 | 1.69 | 26 | 0.368 | < 0.0103 | – | 0.059 | > 100 | < 0.0141 | 0.0481 | 0.12 | 1.9 | 12 | 0.0806 | < 0.018 | 0.0485 | 0.122 | 4 | 32 | 0.0859
3 | CN(C)c1ccc(/C=C\C2=[N+](C)c3ccccc3C2(C)C)cc1 | 0.473 | 27 | 1290 | > 100 | 0.305 | 8.68 | 0.309 | – | 0.356 | 14.6 | 1.91 | > 38.2 | 2680 | > 55.2 | 0.342 | 4.38 | 0.614 | > 41.1 | 28500 | > 100
4 | COc1cnc2c(c1)C(=O)c1c-2n(CCCN2CCOCC2)c(=O)c2cc(F)ccc12 | 0.341 | > 100 | 482 | > 100 | 1.5 | 23.3 | 0.147 | 0.638 | 0.161 | 0.387 | 0.288 | > 100 | 206 | 1.14 | 0.25 | 2.37 | 0.246 | > 100 | 82.9 | 1.27
5 | O=[N+]([O-])c1ccc2c(c1)/C(=N/N=C1c3ccccc3Cc3ccccc31)c1cc([N+](=O)[O-])cc([N+](=O)[O-])c1-2 | – | 13.7 | – | 12.3 | – | 6.81 | – | 4.07 | – | 4.6 | – | 6.28 | – | 31.5 | – | 3.11 | – | 3.24 | – | > 25.7
6 | Nc1ccccc1C#C/C=C\C#Cc1ccccc1OC(F)(F)F | 4.81 | 29.9 | 9160 | 58.7 | 4.08 | 22 | 3.62 | 28.7 | 7.85 | 27 | 3.86 | 17.8 | 14000 | 40.3 | 3.49 | 20.5 | 6.7 | 47.2 | 1630 | 13.9
7 | C[C@@H]1C[C@H]2C(=O)O[C@@H](C)[C@H](NC(=O)[C@H](Cc3cc(F)cc(F)c3)NC(=O)Nc3ccc(C4CC4)cc3F)C(=O)N3CCC[C@H]3C(=O)N3CCCC[C@H]3C(=O)N[C@@H](C)C(=O)N2C1 ({X10-CO}-[Phe(3,5-F2)][aThr]P[Pip]A[Pro(4R-Me)]; ester 2-C) | 0.053 | > 56.9 | 61.3 | > 95.6 | 0.0409 | 3.94 | 0.0496 | 7.95 | 0.0668 | 11.5 | 0.0436 | 2.41 | 52.4 | 4.35 | 0.043 | 3.27 | 0.0383 | > 100 | 63.3 | 5.67
8 | NC(N)=NS(=O)(=O)c1ccc(Nc2c3ccccc3nc3c(C(=O)NCCO)cccc23)cc1 | 15.3 | – | 25700 | – | 21.3 | – | 29.7 | – | 28 | – | 26.3 | – | – | 0.322 | 17.1 | – | 29.8 | – | 30700 | –
9 | O=C(Nc1ccc(F)cc1)Nc1ccc(Cl)c([N+](=O)[O-])c1 | 4.44 | 21.2 | 2790 | 11 | 4.02 | 24.2 | 3.2 | 12.4 | 3.51 | 12.2 | 3.14 | 12.3 | 2280 | 9.3 | 3.81 | 19.1 | 2.98 | 15.1 | 3410 | > 100
10 | Cc1ccc(CN2CCC(C(=O)Nc3ccc(-c4cc5ccccc5[nH]4)cc3)CC2)o1 | > 100 | > 100 | > 100000 | > 100 | 26.3 | > 100 | 94.2 | > 100 | > 100 | > 100 | 66.1 | > 100 | > 100000 | > 100 | > 100 | > 100 | > 100 | > 100 | 4300 | > 100
11 | FC(F)(F)c1cccc(Nc2nc(-c3ccccc3)nc3ncccc23)c1 | 4.72 | 21.8 | – | – | 3.49 | 18.1 | 3.15 | 12 | 4.48 | 24.6 | 3.79 | 16.5 | 6250 | 35.6 | 5.2 | 28 | 3.74 | 18.2 | 2610 | 13.3
12 | O=C1NC(=NCCc2cccc(F)c2)S/C1=C\c1ccc2ncccc2c1 | 10.1 | > 25 | – | – | 10.6 | > 25 | 1.05 | > 25 | 1.75 | > 25 | 3.6 | > 25 | > 12900 | > 25 | 1.76 | > 25 | 12.8 | > 25 | 121 | > 25
13 | NS(=O)(=O)c1ccc2c(c1)OCCOCCOCCOCCO2 | – | > 100 | – | > 100 | – | > 100 | – | > 100 | – | > 100 | – | > 100 | – | > 100 | – | – | – | > 100 | – | > 100
